In US11136311B2, “Heteroaromatic derivatives as NIK inhibitors” (Janssen Pharmaceutica NV, priority 2016, dated 2021):

How the values were obtained:
[1] = system: P-IKKα levels in L363 cells; experiment: Effect of compounds on P-IKKα levels in L363 (NIK translocated multiple myeloma) cells; format: cell-based, human; conditions: Homo sapiens, L-363, L363 cells; averaged values; read-out: Inhibition of pIKKα_L-363 (IC50 (nM))
Description: Effect of compounds on P-IKKα levels in L363 (NIK translocated multiple myeloma) cells
All compounds tested were dissolved in DMSO and further dilutions were made in culture medium. Final DMSO concentration was 1% (v/v) in cell assays. The human L363 cells (ATCC) were cultured in RPMI 1640 medium supplemented with GlutaMax and 10% fetal calf serum (PAA). Cells were routinely maintained at densities of 0.2×10^6 cells per ml-1×10^6 cells per ml at 37° C. in a humidified 5% CO2 atmosphere. Cells were passaged twice a week splitting back to obtain the low density. Cells were seeded in 96 well plates (Nunc 167008) at 2×10^6 per ml media in a volume of 75 μl per well plus 25 μl 1 μg/ml recombinant human B-cell activating factor (BAFF/BLyS/TNFSF13B). Seeded cells were incubated at 37° C. in a humidified 5% CO2 atmosphere for 24 hr. Drugs and/or solvents were added (20 μl) to a final volume of 120 μl. Following 2 hr treatment plates were removed from the incubator and cell lysis was achieved by the addition of 30 μl 5× lysis buffer followed by shaking on a plate shaker at 4° C. for 10 min. At the end of this incubation lysed cells were centrifuged at 800×g for 20 min at 4° C. and the lysate was assessed for P-IKKα levels by sandwich immuno-assay carried out in anti-rabbit antibody coated Mesoscale plates. Within an experiment, the results for each treatment were the mean of 2 replicate wells. For initial screening purposes, compounds were tested using an 8 point dilution curve (serial 1:3 dilutions). For each experiment, controls (containing MG132 and BAFF but no test drug) and a blank incubation (containing MG132 and BAFF and 10 μM ADS125117, a test concentration known to give full inhibition) were run in parallel. The blank incubation value was subtracted from all control and sample values. To determine the IC50 a sigmoidal curve was fitted to the plot of % inhibition of control P-IKKα levels versus Log10 compound concentration.

[2] = system: JJN-3 cells; experiment: Antiproliferative activity on JJN-3 (NIK translocated) multiple myeloma cells (CellTiter-Glo); format: cell-based, human; conditions: Homo sapiens, JJN-3, 96 h, JJN-3 (NIK translocated) cells, 96 hr; averaged values; read-out: JJN-3 Proliferation inhibition (IC50 (nM))
How it was run: (§1)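 Viability was read by CellTiter-Glo after 96 hr compound exposure (9-point, 1:3 serial dilutions; 0.3% DMSO final). JJN-3 and KMS12-BM cells were seeded at 15000 and 20000 per well respectively in RPMI 1640/10% FCS; blank-subtracted signals were given as percent of drug-free controls.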

[3] = system: KMS12-BM cells; experiment: Antiproliferative activity on KMS12-BM (NIK WT) multiple myeloma cells (CellTiter-Glo); format: cell-based, human; conditions: Homo sapiens, KMS-12-BM, 96 h, KMS12-BM (NIK WT) cells, 96 hr; averaged values; read-out: KMS-12 Proliferation inhibition (IC50 (nM))
How it was run: as §1

[4] = target: recombinant human NF-kappaB-inducing kinase (NIK/MAP3K14) (Homo sapiens (Human), UniProt Q99558); experiment: Inhibition of auto-phosphorylation of recombinant human NIK/MAP3K14 activity (AlphaScreen); format: biochemical; conditions: averaged values over all measurements on all batches
Sequence of recombinant human NF-kappaB-inducing kinase (NIK/MAP3K14) (Q99558 whole entry): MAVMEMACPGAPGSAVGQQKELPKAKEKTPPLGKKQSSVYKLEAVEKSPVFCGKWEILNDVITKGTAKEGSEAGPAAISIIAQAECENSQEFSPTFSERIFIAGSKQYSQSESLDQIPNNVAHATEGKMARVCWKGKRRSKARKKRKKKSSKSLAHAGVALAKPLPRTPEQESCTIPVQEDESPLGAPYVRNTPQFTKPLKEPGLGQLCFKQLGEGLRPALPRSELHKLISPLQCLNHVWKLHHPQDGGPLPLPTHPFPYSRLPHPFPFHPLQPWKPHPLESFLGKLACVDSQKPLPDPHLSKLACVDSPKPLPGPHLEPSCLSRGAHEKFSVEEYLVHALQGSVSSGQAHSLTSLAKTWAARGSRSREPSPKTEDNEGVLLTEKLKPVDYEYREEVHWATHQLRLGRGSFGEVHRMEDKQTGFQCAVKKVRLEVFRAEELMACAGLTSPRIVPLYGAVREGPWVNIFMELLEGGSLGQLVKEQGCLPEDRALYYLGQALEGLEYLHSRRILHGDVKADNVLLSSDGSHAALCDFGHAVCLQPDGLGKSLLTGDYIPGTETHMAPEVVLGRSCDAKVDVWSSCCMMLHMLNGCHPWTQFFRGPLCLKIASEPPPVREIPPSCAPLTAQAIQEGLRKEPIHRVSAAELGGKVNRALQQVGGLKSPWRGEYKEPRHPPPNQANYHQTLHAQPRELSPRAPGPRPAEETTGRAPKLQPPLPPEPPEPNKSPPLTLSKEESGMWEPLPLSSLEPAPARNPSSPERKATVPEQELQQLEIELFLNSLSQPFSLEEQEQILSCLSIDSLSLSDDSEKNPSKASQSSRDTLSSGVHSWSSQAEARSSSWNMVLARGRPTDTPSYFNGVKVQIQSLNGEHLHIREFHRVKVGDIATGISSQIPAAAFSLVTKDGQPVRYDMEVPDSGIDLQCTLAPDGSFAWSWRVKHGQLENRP
How it was run: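 AlphaScreen read-out, using anti-phospho-IKK Ser176/180 antibody, tracked NIK autophosphorylation after 1 h at 25° C. Reactions held 0.2 nM GST-NIK, 25 microM ATP and compound in 1% DMSO, Tris pH 7.5 buffer. IC50 fitted sigmoidally to blank-subtracted inhibition data.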

IC50 [1] | IC50 [2] | IC50 [3] | IC50 [4] | Compound
3 nM | 102 nM | 724 nM | 2.9 nM | Cc1c(Nc2nccc(-c3cc(C#N)c4c(c3)[C@@](C)(CO)CN4)n2)cnn1C1CCOCC1 [Compound 72]
2 nM | 141 nM | 741 nM | 1.2 nM | Cc1c(Nc2nccc(-c3cc(C#N)c4c(c3)[C@@](C)(CO)CN4)n2)cnn1CC1CCOCC1 [Compound 76]
514 nM | 111 nM | 148 nM | 10 nM | Cc1cc(Nc2nccc(-c3cc(C#N)c4c(c3)[C@@](C)(CO)CN4)n2)n(CC2CCN(C)CC2)n1 [Compound 83]
9 nM | 2140 nM | > 10000 nM | 6.8 nM | Cc1cc(Nc2nccc(-c3cc(C#N)c4c(c3)[C@@](C)(CO)CN4)n2)n(CC(=O)N2CCCC2)n1 [Compound 88]
13 nM | 324 nM | > 10000 nM | 5.5 nM | CC(C)n1nc(C2CCOCC2)cc1Nc1cc(-c2cc(C#N)c3c(c2)[C@@](C)(CO)CN3)ncn1 [Compound 91]
7 nM | ~224 nM | 1510 nM | 3.5 nM | Cc1cc(Nc2nccc(-c3cc(C#N)c4c(c3)[C@@](C)(CO)CN4)n2)n(CCCO)n1 [Compound 92]
4 nM | 100 nM | 871 nM | 1.6 nM | Cc1cc(Nc2nccc(-c3cc(C#N)c4c(c3)[C@@](C)(CO)CN4)n2)nn1CCC1CC1 [Compound 95]
5 nM | 1020 nM | > 10000 nM | 2 nM | CC(C)Cc1c(Nc2nccc(-c3cc(C#N)c4c(c3)[C@@](C)(CO)CN4)n2)cnn1C [Compound 98]
15 nM | 117 nM | > 10000 nM | 3.4 nM | COCCCn1ncc(Nc2nccc(-c3cc(C#N)c4c(c3)[C@@](C)(CO)CN4)n2)c1CCC(C)C [Compound 104]
20 nM | 447 nM | > 10000 nM | 5.5 nM | COCCCn1cc(Nc2nccc(-c3cc(C#N)c4c(c3)[C@@](C)(CO)CN4)n2)c(CCC(C)C)n1 [Compound 105]
9 nM | 55 nM | 1350 nM | 3.8 nM | CC(C)Cn1nc(Cl)cc1Nc1nccc(-c2cc(C#N)c3c(c2)[C@@](C)(CO)CN3)n1 [Compound 107]
14 nM | ~724 nM | ~3160 nM | 4.1 nM | Cc1cc(Nc2nccc(-c3cc(C#N)c4c(c3)[C@@](C)(CO)CN4)n2)n(CCC(C)(C)O)n1 [Compound 108]
4 nM | 138 nM | 2040 nM | 3 nM | CC(C)CCn1nc(CO)cc1Nc1nccc(-c2cc(C#N)c3c(c2)[C@@](C)(CO)CN3)n1 [Compound 110]
10 nM | 62 nM | 4270 nM | 4.6 nM | C[C@]1(CO)CNc2c(C#N)cc(-c3ccnc(Nc4cc(Cl)nn4CCC4CC4)n3)cc21 [Compound 115]
11 nM | 269 nM | > 10000 nM | 6 nM | CC(C)CCc1c(Nc2nccc(-c3cc(C#N)c4c(c3)[C@@](C)(CO)CN4)n2)cnn1Cc1nccn1C [Compound 117]
33 nM | 447 nM | > 10000 nM | 4 nM | CN(C(=O)Cn1nc(Cl)cc1Nc1nccc(-c2cc(C#N)c3c(c2)[C@@](C)(CO)CN3)n1)C1CC1 [Compound 118]
43 nM | 3160 nM | > 10000 nM | 9.6 nM | CC(C)Cn1nc(P(C)(C)=O)cc1Nc1nccc(-c2cc(C#N)c3c(c2)[C@@](C)(CO)CN3)n1 [Compound 119]
3 nM | 126 nM | 5010 nM | ~29 nM | CC(C)CCc1c(Nc2nccc(-c3cc(C#N)c4c(c3)[C@@](C)(CO)CN4)n2)cnn1Cc1cncn1C [Compound 120]

More lines, now with the values behind:

Compound | IC50 [1] | IC50 [2] | IC50 [3] | IC50 [4]
C=CCn1nc(C)cc1Nc1nccc(-c2cc(C#N)c3c(c2)[C@@](C)(CO)CN3)n1 [Compound 73] | 2 nM | 195 nM | 1320 nM | 1.9 nM
CN(C)C(=O)c1cc(Nc2nccc(-c3cc(C#N)c4c(c3)C(C)(CO)CN4)n2)n(C)n1 (stereo not shown) [Compound 86] | 15 nM | 871 nM | ~3720 nM | 2.6 nM
Cc1cc(Nc2nccc(-c3cc(C#N)c4c(c3)[C@@](C)(CO)CN4)n2)n(CC(=O)N2CC(F)(F)C2)n1 [Compound 87] | 34 nM | 3240 nM | > 10000 nM | ~6.5 nM
Cc1cc(Nc2nccc(-c3cc(C#N)c4c(c3)[C@@](C)(CO)CN4)n2)n(CC(=O)N(C)C2CC2)n1 [Compound 89] | ~85 nM | 427 nM | > 10000 nM | 3.7 nM
CC(C)CCn1nc(C#N)cc1Nc1nccc(-c2cc(C#N)c3c(c2)[C@@](C)(CO)CN3)n1 [Compound 93] | 37 nM | 182 nM | 457 nM | 11 nM
Cc1cc(Nc2nccc(-c3cc(C#N)c4c(c3)[C@@](C)(CO)CN4)n2)n(CCC2CC2)n1 [Compound 96] | 12 nM | 76 nM | 3800 nM | 1.6 nM
CC(C)Cc1nn(C)cc1Nc1nccc(-c2cc(C#N)c3c(c2)[C@@](C)(CO)CN3)n1 [Compound 97] | 2 nM | 309 nM | > 10000 nM | 2 nM
CC(C)CCc1c(Nc2nccc(-c3cc(C#N)c4c(c3)[C@@](C)(CO)CN4)n2)cnn1C [Compound 99] | 3 nM | 288 nM | 9770 nM | 2.9 nM
CC(C)CCc1nn(C)cc1Nc1nccc(-c2cc(C#N)c3c(c2)[C@@](C)(CO)CN3)n1 [Compound 100] | ~15 nM | 54 nM | > 10000 nM | 2.1 nM
CC(C)CCc1nn(CCN(C)C)cc1Nc1nccc(-c2cc(C#N)c3c(c2)[C@@](C)(CO)CN3)n1 [Compound 101] | 234 nM | 1510 nM | 5250 nM | 6 nM
CNC(=O)c1cc(Nc2nccc(-c3cc(C#N)c4c(c3)[C@@](C)(CO)CN4)n2)nn1C(C)C [Compound 103] | 4 nM | 71 nM | 3020 nM | 2.6 nM
Cc1cc(Nc2nccc(-c3cc(C#N)c4c(c3)[C@@](C)(CO)CN4)n2)nn1CCC(C)(C)O [Compound 109] | 11 nM | 50 nM | 468 nM | 3.6 nM
Cc1cc(Nc2nccc(-c3cc(C#N)c4c(c3)[C@@](C)(CO)CN4)n2)n(CC2(C)COC2)n1 [Compound 111] | ~331 nM | 355 nM | 5130 nM | 9.3 nM
COCCCn1nc(Cl)cc1Nc1nccc(-c2cc(C#N)c3c(c2)[C@@](C)(CO)CN3)n1 [Compound 112] | 13 nM | 69 nM | 8910 nM | 2.9 nM
C[C@]1(CO)CNc2c(C#N)cc(-c3ccnc(Nc4cc(Cl)nn4C[C@@H]4CCCO4)n3)cc21 [Compound 113] | 42 nM | 69 nM | 3020 nM | 6.2 nM
C[C@]1(CO)CNc2c(C#N)cc(-c3ccnc(Nc4cc(Cl)nn4C[C@H]4CCCO4)n3)cc21 [Compound 114] | 30 nM | 151 nM | 1070 nM | 6 nM
